Test system: lactic acid bacteria group (mainly, Lactobacillus spp.)
Test: Addition test of γ-PGA and fructo-oligosaccharide to human feces suspension
Format: cell-based
Details: human feces suspension in PBS medium, anaerobic culture 37° C. 4 days, quantitative PCR, 0.1-1.0% γ-PGA, 0.5% FOS, n=6
Description: The PBS solutions of Examples and Comparative Examples shown in Table 1 were prepared and used as media for feces culture. PBS alone was used as a negative control. As γ-PGA, polyglutamic acid “CALTAKE” manufactured by Ajinomoto Co., Inc. was used, and as FOS, fructo-oligosaccharide manufactured by Wako Pure Chemical Industries, Ltd. was used.
Thereafter, 10 ml each was dispensed into glass vials and the glass vials were sterilized by autoclave, made anaerobic, and sealed with a butyl rubber stopper. The feces suspension was prepared by collecting about 10 g of feces from 6 healthy individuals (3 men and 3 women) in their 20s to 40s and suspending same in 80 ml of anaerobic PBS. […] DNA was extracted from this pellet using ISOFECAL for BeadsBeat (manufactured by NIPPON GENE CO., LTD.), and quantitative PCR was performed using GeneAce SYBR qPCR Mix α (manufactured by NIPPON GENE CO., LTD.). Quantitative PCR was performed under the conditions of 45 cycles of 95° C. for 30 sec and 60° C. for 60 sec after 95° C. for 10 min. Primers for quantitative PCR used for detection of lactic acid bacteria group (mainly, Lactobacillus spp.) were as follows.
Using the results obtained by quantitative PCR, the relative amount when PBS alone (negative control) is 1 was calculated, and the results were normalized with z-score. […]

## γ-polyglutamic acid [γ-PGA]
  proliferation of the lactic acid bacteria group: not observed

From patent publication US11273169B2, “Food for improving intestinal environment” (AJINOMOTO CO., INC., priority 2017, dated 2022)
